We go through two molecules from patent publication US20240270731A1, “[…]” (ALEBUND PHARMACEUTICALS (HONG KONG) LIMITED, priority 2021, published 2024).

Structures are written as SMILES.

Data set [1] concerns rat model of hyperlipidemia induced by high cholesterol diet. Briefly: Rat model of hyperlipidemia induced by high cholesterol diet (serum TG, NEFA). Type of data set: in vivo, Sprague-Dawley rats. Conditions: for Serum TG and NEFA levels compared with the vehicle group: Day 8, both 0.2 mg/kg and 0.6 mg/kg; for Serum TG / Serum NEFA: mean ± SD, n=6. The source says:
On the day before the start of the administration (Day 0), the animals were divided into 7 groups based on body weights and serum indicators and were continually fed with the high-cholesterol diet. The treatment groups were orally dosed with either compound or vehicle while continuing the high-cholesterol diet for a total of 1 week. The animals were weighed daily before the treatment, and the compounds were given at 9:00-9:30 in the morning based on the body weight of the day.

Data set [2] deals with db/db type 2 diabetes model. The data set can be described thus: Pharmacodynamics study on the db/db type 2 diabetes model. Particulars: for Serum TG levels compared with the vehicle group: Day 6 and Day 12, Compound 2 at different dosages; for Statistical difference (p) of the blood glucose level between OGTT treatment group and vehicle group: 0.2 mpk.
Text: 45 db/db mice were evenly divided into 5 groups before the initiation of treatment based on the body weights, serum triglyceride (TG) levels, and random blood glucose levels.
All animals were weighed daily before each dosing and treated daily for 14 consecutive days.
All the data was imported into an Excel file and presented as Mean±SEM. Graphpad Prism 7.0 software was used for data statistical analysis by One-way or Two-way ANOVA, with P<0.05 as the criterion of significant differences.
For data set [3], the system named is rat model of unilateral ureteral obstruction. The data set can be described thus: Renal injury in rat model of unilateral ureteral obstruction. Particulars: 0.2 mg/kg oral daily, 14 treatment days.
Experimental: Housing temperature was maintained at 20-26° C. and humidity at 40%-60%. Rats were fed with a standard chow and allowed to access food and water ad libitum.
The formulation was prepared twice a week.
Vehicle or compounds were administrated by orally gavage daily. Unilateral ureteral obstruction was performed on the second day of compound treatment. Animals in model group, reference group and compound group underwent urethral ligation under isoflurane anesthesia one hour after receiving compound administration. A flank incision was cut to expose the left ureter, and a 4-0 surgical suture was used to perform two-point ligation to achieve urethral obstruction. Ureter was cut between the two ligation points. Animals in the control group were subjected to the same surgical treatment except the ligation and cut.
Rats were sacrificed after 14 days' compound treatment. The obstructed kidney was weighed and collected for histology. The tissue samples were fixed with formalin, and then paraffin embedded. The embedded tissue was sectioned and stained with hematoxylin & eosin and Masson trichrome to assess kidney structure and fibrosis.
The multiple comparison was analyzed with the Kruskal-Wallis non-parameter test. The Dunn's test was used to compare the difference to the model group.
For data set [4], the system named is uninephrectomied db/db mice. Briefly: Diabetic nephropathy pharmacodynamic model (uninephrectomied db/db mice).
Experimental: Housing temperature was maintained at 22-26° C. and humidity at 40%-60%. Mice were allowed to access food and water ad libitum. […] Buprenorphine was applied after surgery.
Two weeks after surgery, db/db mice were randomly assigned into 5 groups. Wild type mice were used for the control animals. […] Compounds were orally administrated once per day for 10 weeks.
At the 5th and 9th week after compound administration, mice were placed in metabolic cages for urine collection. Albumin level was measured for 24 hr albumin excretion calculation. At the 10th week after treatment, the animals were sacrificed for kidney dissection. The kidney was fixed in 10% neutral buffed formalin, then paraffin-embedded for histopathological analysis. Glomerulosclerosis was assessed by evaluating glomerular basement membrane, mesangial expansion, nodular sclerosis and glomerulosclerosis.
Graphpad 8.0 software was used for statistical analysis. The difference between the values were analyzed with one-way ANOVA. The difference between histopathological score was analyzed with Kruskal-Wallis nonparameter test.
Data set [5] can be described thus: 7-day repeated oral gavage, body weights of ICR mice. Type of data set: in vivo. Conditions: for Weight Gain compared with Day 0: n=10. The source says: After 3 days of acclimatization, ICR mice were grouped according to their body weights. The day of grouping is designated as Day 0. […] The animals were weighed and recorded daily.
[6] abbreviates: Day 8, 0.2 mg/kg oral QD x 7 days.
The mark [7] stands for this setting: Day 8, 0.6 mg/kg oral QD x 7 days.

As for `CO[C@@H](Cc1ccc(OCCc2nc(-c3ccccc3)oc2C)c2ccsc12)C(=O)O` (single isomer, unassigned) [Compound 2], in data set [1] (0.2 mg/kg, T-test, P<0.05), the “Serum NEFA compared with Aleglitazar” value is reported as “significantly reduce” and the “Serum TG compared with Aleglitazar” value is “significantly reduce”. Moreover, in data set [1], the “Serum TG and NEFA levels compared with the vehicle group” value is listed as “significantly reduce”. In data set [2] (0.05 mg/kg, all time points), the “OGTT blood glucose compared with the vehicle group” value was “did not reach statistical significance”. Moreover, in data set [2] (Aleglitazar 0.2 mg/kg), the “Serum TG levels compared with the vehicle group” value is listed as “significantly lower”. Besides, in data set [2] (random blood glucose, Day 7 and Day 14), the “Effect on lowering blood glucose compared with Aleglitazar” value is recorded as “slightly weaker effect”. In addition, the “OGTT AUC0-120min compared with Aleglitazar” value in data set [2] (same dose level (0.2 mg/kg)) is listed as “higher”. Moreover, the “Total score of renal focal lesions (infract, tubular dilation, tubular obstruction, fibrosis, necrosis) compared with model group” value in data set [3] is given as “significantly improved”. The “24-hour urinary albumin compared with vehicle” value in data set [4] (5th and 9th weeks after compound administration, 0.1, 0.3, 1 mg/kg oral once per day) is “significantly decreased”. In data set [4] (all dosage levels (0.1, 0.3, 1 mg/kg), 10 weeks), the “Renal tubular injury (histopathology)” value is given as “improved the tubular injury at some extend”. Further, the “Glomerulosclerosis histopathological score and glomerular volume” value in data set [4] (high dose (1 mg/kg), 10 weeks) is reported as “statistically significantly reduced”.
Turning to `CO[C@@H](Cc1ccc(OCCc2nc(-c3ccccc3)oc2C)c2ccsc12)C(=O)O` [Aleglitazar, aleglitazar, reference compound], the “Serum TG” value in data set [1] (Day 0 (day before treatment), group later dosed 0.2 mg/kg oral QD x 7 days) was 4.24 ± 1.18 mmol/L; in data set [1] (Day 0 (day before treatment), group later dosed 0.6 mg/kg oral QD x 7 days), 4.09 ± 2.17 mmol/L; in data set [1] (setting [6]) it was 2.86 ± 0.86 mmol/L; in data set [1] (setting [7]) it was 1.47 ± 0.46 mmol/L. The “Serum NEFA” value in data set [1] (setting [6]) is 706.00 ± 190.15 µmol/L; in data set [1] (setting [7]), 327.83 ± 90.73 µmol/L. Moreover, the “Serum TG and NEFA levels compared with the vehicle group” value in data set [1] was “significantly reduce”. Further, the “Daily average weight gain compared with the vehicle group” value is reported as “significantly higher” in data set [5] (0.2 mg/kg (Aleglitazar: Day 4 and Day 5; Compound 2: throughout the study)); “significantly higher” in data set [5] (1 mg/kg (Aleglitazar: Day 6; Compound 2: Day 4 and 5; Compounds 4 and 10: Day 4 to Day 7)). Also, the “Weight Gain compared with Day 0” value was determined as 0.48 ± 0.27 g in data set [5] (Day 1, 0.2 mg/kg oral QD); 1.66 ± 0.39 g in data set [5] (Day 2, 0.2 mg/kg oral QD); 1.64 ± 0.26 g in data set [5] (Day 2, 1 mg/kg oral QD); 2.62 ± 0.42 g in data set [5] (Day 3, 0.2 mg/kg oral QD); 2.61 ± 0.51 g in data set [5] (Day 3, 1 mg/kg oral QD); 3.50 ± 0.42 g in data set [5] (Day 4, 0.2 mg/kg oral QD). Further, the “Weight Gain compared with Day 0” value amounted to 3.33 ± 0.54 g in data set [5] (Day 4, 1 mg/kg oral QD); 3.92 ± 0.4 g in data set [5] (Day 5, 0.2 mg/kg oral QD); 3.86 ± 0.49 g in data set [5] (Day 5, 1 mg/kg oral QD); 4.81 ± 0.37 g in data set [5] (Day 6, 0.2 mg/kg oral QD); 4.98 ± 0.52 g in data set [5] (Day 6, 1 mg/kg oral QD); 5.39 ± 0.56 g in data set [5] (Day 7, 0.2 mg/kg oral QD). Also, the “Weight Gain compared with Day 0” value in data set [5] (Day 7, 1 mg/kg oral QD) stood at 5.34 ± 0.50 g. In data set [2] (Aleglitazar 0.2 mg/kg), the “Serum TG levels compared with the vehicle group” value is given as “significantly lower”. The “Average daily body weights compared with the vehicle group” value in data set [2] (Day 10 to Day 15, Aleglitazar 0.2 mg/kg, Compound 2 0.05, 0.2, 1 mg/kg) is reported as “significantly higher”. Further, the “Statistical difference (p) of the blood glucose level between OGTT treatment group and vehicle group” value in data set [2] (OGTT Day 14, 0 min) was “p < 0.001”; in data set [2] (OGTT Day 14, 15 min), “p < 0.01”; in data set [2] (OGTT Day 14, 30 min), “p > 0.05”; in data set [2] (OGTT Day 14, 60 min), “p < 0.01”; in data set [2] (OGTT Day 14, 120 min), “p < 0.01”. Besides, the “Statistical difference (p) of the blood glucose level between treatment group and vehicle group” value in data set [2] (random blood glucose, Day 0, 0.2 mpk) is recorded as “p > 0.05”; in data set [2] (random blood glucose, Day 7, 0.2 mpk), “p < 0.05”; in data set [2] (random blood glucose, Day 14, 0.2 mpk), “p < 0.01”. Moreover, the “Total score of renal focal lesions (infract, tubular dilation, tubular obstruction, fibrosis, necrosis) compared with model group” value in data set [3] is “did not achieve statistically significant improvement”.
